Results as given in patent US20240067632A1, “WEE1 Degrading Compounds and Uses Thereof” (Bristol-Myers Squibb Company, priority 2022, published 2024).

Columns and labels:
MKN45 cells = assay: MKN45 cell proliferation assay (Cell-Titer-Glo, 120 h); assay type: cell-based; conditions: for EC50: Homo sapiens, MKN-45, 120 h, Cell-Titer-Glo, growth inhibition, read-out: MKN45 Cell Prolif. 120 hr (EC50); for MKN45 Cell Prolif. 120 hr (Ymin-Obs): minimal percent of DMSO control observed in the concentrations tested
Outline: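 Cells seeded at 400/well onto pre-printed 10-point half-log dilutions (top 1 or 10 uM, 0.1% DMSO final), in triplicate, and grown 120 h at 37 C. Viability by Cell-Titer-Glo luminescence, blank-subtracted and normalised to DMSO; EC50 from four-parameter logistic fit, with observed minimal % of control recorded as Ymin-obs.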

WEE1 = molecular target: T1, WEE1 (Homo sapiens, UniProt P30291+Q96SW2); assay: WEE1-ePL degradation assay (LentiX-WEE1-ePL-GSPT1-ND cells, InCELL Hunter luminescence, 4 h); assay type: cell-based; conditions: 293T-LentiX WEE1-ePL cells; for 293T-LentiX WEE1-ePL Degradation 4 hr (Ymin): lower limit of the fit (0 = luciferase inhibitor, Ymax = DMSO control); for DC50: read-out: 293T-LentiX WEE1-ePL Degradation 4 hr (EC50)
T1 construct: C-terminal ePL-tagged (DiscoverX, Fremont, CA) full-length WEE1 expression construct; expressed in transfected cells; host or cells: LentiX-HEK293T (Invitrogen), lentiviral transduction; co-expressing GSPT1-GN (G576N, lacking the first 158 amino acids)
Outline: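 First, compounds were pre-plated as 10-point, 3-fold dilutions (top 1 uM or 10 uM) with DMSO control; next, WEE1-ePL-expressing HEK293T cells were added and held 4 h at 37 °C; finally, InCELL Hunter reagent was applied for 30 min before luminescence reading. A 4PL fit gave EC50 and Ymin.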

Row | EC50 (MKN45 cells) | 293T-LentiX WEE1-ePL Degradation 4 hr (Ymin) (WEE1) | DC50 (WEE1) | Compound | MKN45 Cell Prolif. 120 hr (Ymin-Obs) (MKN45 cells)
1 | 1.04 nM | 29.5 | 6.38 nM | CO[C@H]1CC[C@@H](Nc2ccc3cc(CN4CC[C@H](Oc5ccc6c(c5)CN(C5CCC(=O)NC5=O)C6=O)C4)ccc3n2)CC1 (stereo partly drawn) [3-(1-oxo-5-{[(3S)-1-[(2-{[(1s,4s)-4-methoxycyclohexyl]amino}quinolin-6-yl)methyl]pyrrolidin-3-yl]oxy}-2,3-dihydro-1H-isoindol-2-yl)piperidine-2,6-dione] | 6.285
2 | 5.35 nM | 31.33 | 4.62 nM | CO[C@H]1CC[C@@H](Oc2ccc3cc(CN4CC[C@H](Oc5ccc6c(c5)CN(C5CCC(=O)NC5=O)C6=O)C4)ccc3n2)CC1 (stereo partly drawn) [3-(1-oxo-5-{[(3S)-1-[(2-{[(1s,4s)-4-methoxycyclohexyl]oxy}quinolin-6-yl)methyl]pyrrolidin-3-yl]oxy}-2,3-dihydro-1H-isoindol-2-yl)piperidine-2,6-dione] | 8.79
3 | 2.62 nM | 30 | 4.51 nM | O=C1CCC(N2Cc3cc(O[C@H]4CCN(Cc5ccc6nc(CO[C@@H]7CCOC7)ccc6c5)C4)ccc3C2=O)C(=O)N1 (stereo partly drawn) [3-(1-oxo-5-{[(3S)-1-[(2-{[(3R)-oxolan-3-yloxy]methyl}quinolin-6-yl)methyl]pyrrolidin-3-yl]oxy}-2,3-dihydro-1H-isoindol-2-yl)piperidine-2,6-dione] | 6.56
4 | 3.12 nM | 33 | 7.04 nM | O=C1CCC(N2Cc3cc(O[C@H]4CCN(Cc5ccc6nc(CO[C@H]7CCOC7)ccc6c5)C4)ccc3C2=O)C(=O)N1 (stereo partly drawn) [3-(1-oxo-5-{[(3S)-1-[(2-{[(3S)-oxolan-3-yloxy]methyl}quinolin-6-yl)methyl]pyrrolidin-3-yl]oxy}-2,3-dihydro-1H-isoindol-2-yl)piperidine-2,6-dione] | 7.75
5 | > 10000 nM | 70 | 558 nM | O=C1CCC(N2Cc3cc(O[C@H]4CCN(Cc5ccc6c(c5)NC(=O)CO6)C4)ccc3C2=O)C(=O)N1 (stereo partly drawn) [3-(1-oxo-5-{[(3S)-1-[(3-oxo-3,4-dihydro-2H-1,4-benzoxazin-6-yl)methyl]pyrrolidin-3-yl]oxy}-2,3-dihydro-1H-isoindol-2-yl)piperidine-2,6-dione] | 88.425
6 | 16.7 nM | 34.5 | 5.3 nM | O=C1CCC(N2Cc3cc(O[C@H]4CCN(Cc5cc(-c6ccccc6)ccn5)C4)ccc3C2=O)C(=O)N1 (stereo partly drawn) [3-(1-oxo-5-{[(3S)-1-[(4-phenylpyridin-2-yl)methyl]pyrrolidin-3-yl]oxy}-2,3-dihydro-1H-isoindol-2-yl)piperidine-2,6-dione] | 8.59
7 | 131 nM | 46 | 7.59 nM | O=C1CCC(N2Cc3cc(O[C@H]4CCN(Cc5ccc(-c6ccccc6)cn5)C4)ccc3C2=O)C(=O)N1 (stereo partly drawn) [3-(1-oxo-5-{[(3S)-1-[(5-phenylpyridin-2-yl)methyl]pyrrolidin-3-yl]oxy}-2,3-dihydro-1H-isoindol-2-yl)piperidine-2,6-dione] | 31.28
8 | 8.4 nM | 33 | 2.17 nM | O=C1CCC(N2Cc3cc(O[C@H]4CCN(Cc5cncc(-c6ccccc6)c5)C4)ccc3C2=O)C(=O)N1 (stereo partly drawn) [3-(1-oxo-5-{[(3S)-1-[(5-phenylpyridin-3-yl)methyl]pyrrolidin-3-yl]oxy}-2,3-dihydro-1H-isoindol-2-yl)piperidine-2,6-dione] | 7.52
9 | 883 nM | 38 | 148 nM | O=C1CCC(N2Cc3cc(O[C@H]4CCN(Cc5ccc6cnncc6c5)C4)ccc3C2=O)C(=O)N1 (stereo partly drawn) [3-(1-oxo-5-{[(3S)-1-[(phthalazin-6-yl)methyl]pyrrolidin-3-yl]oxy}-2,3-dihydro-1H-isoindol-2-yl)piperidine-2,6-dione] | 16.7
10 | 4770 nM | 48.23 | 51.9 nM | O=C1CCC(N2Cc3cc(O[C@H]4CCN(Cc5ncc6ccccc6n5)C4)ccc3C2=O)C(=O)N1 (stereo partly drawn) [3-(1-oxo-5-{[(3S)-1-[(quinazolin-2-yl)methyl]pyrrolidin-3-yl]oxy}-2,3-dihydro-1H-isoindol-2-yl)piperidine-2,6-dione] | 74.28
11 | 284 nM | 36.57 | 57 nM | O=C1CCC(N2Cc3cc(O[C@H]4CCN(Cc5ccc6ncncc6c5)C4)ccc3C2=O)C(=O)N1 (stereo partly drawn) [3-(1-oxo-5-{[(3S)-1-[(quinazolin-6-yl)methyl]pyrrolidin-3-yl]oxy}-2,3-dihydro-1H-isoindol-2-yl)piperidine-2,6-dione] | 20.44
12 | > 10000 nM | 58 | 25.6 nM | O=C1CCC(N2Cc3cc(O[C@H]4CCN(Cc5ccc6ccccc6n5)C4)ccc3C2=O)C(=O)N1 (stereo partly drawn) [3-(1-oxo-5-{[(3S)-1-[(quinolin-2-yl)methyl]pyrrolidin-3-yl]oxy}-2,3-dihydro-1H-isoindol-2-yl)piperidine-2,6-dione] | 81.45
13 | 56.8 nM | 33.025 | 23.4 nM | O=C1CCC(N2Cc3cc(O[C@H]4CCN(Cc5ccnc6ccccc56)C4)ccc3C2=O)C(=O)N1 (stereo partly drawn) [3-(1-oxo-5-{[(3S)-1-[(quinolin-4-yl)methyl]pyrrolidin-3-yl]oxy}-2,3-dihydro-1H-isoindol-2-yl)piperidine-2,6-dione] | 13.21
14 | 104 nM | 32.69 | 14.6 nM | O=C1CCC(N2Cc3cc(O[C@H]4CCN(Cc5cccc6ncccc56)C4)ccc3C2=O)C(=O)N1 (stereo partly drawn) [3-(1-oxo-5-{[(3S)-1-[(quinolin-5-yl)methyl]pyrrolidin-3-yl]oxy}-2,3-dihydro-1H-isoindol-2-yl)piperidine-2,6-dione] | 19
15 | 30.4 nM | 28.66 | 3.45 nM | O=C1CCC(N2Cc3cc(O[C@H]4CCN(Cc5ccc6ncccc6c5)C4)ccc3C2=O)C(=O)N1 (stereo partly drawn) [3-(1-oxo-5-{[(3S)-1-[(quinolin-6-yl)methyl]pyrrolidin-3-yl]oxy}-2,3-dihydro-1H-isoindol-2-yl)piperidine-2,6-dione] | 14.87
16 | > 10000 nM | 57 | 30.1 nM | O=C1CCC(N2Cc3cc(O[C@H]4CCN(Cc5ccc6cccnc6c5)C4)ccc3C2=O)C(=O)N1 (stereo partly drawn) [3-(1-oxo-5-{[(3S)-1-[(quinolin-7-yl)methyl]pyrrolidin-3-yl]oxy}-2,3-dihydro-1H-isoindol-2-yl)piperidine-2,6-dione] | 76.22
17 | > 10000 nM | 43.82 | 46.9 nM | O=C1CCC(N2Cc3cc(O[C@H]4CCN(Cc5cnc6ccccc6n5)C4)ccc3C2=O)C(=O)N1 (stereo partly drawn) [3-(1-oxo-5-{[(3S)-1-[(quinoxalin-2-yl)methyl]pyrrolidin-3-yl]oxy}-2,3-dihydro-1H-isoindol-2-yl)piperidine-2,6-dione] | 64.16
18 | 879 nM | 43 | 14.2 nM | O=C1CCC(N2Cc3cc(O[C@H]4CCN(Cc5ccc6nccnc6c5)C4)ccc3C2=O)C(=O)N1 (stereo partly drawn) [3-(1-oxo-5-{[(3S)-1-[(quinoxalin-6-yl)methyl]pyrrolidin-3-yl]oxy}-2,3-dihydro-1H-isoindol-2-yl)piperidine-2,6-dione] | 70.03
19 | 269 nM | 31.735 |  | O=C1CCC(N2Cc3cc(O[C@H]4CCN(Cc5cnn(-c6cccnc6)c5)C4)ccc3C2=O)C(=O)N1 (stereo partly drawn) [3-(1-oxo-5-{[(3S)-1-{[1-(pyridin-3-yl)-1H-pyrazol-4-yl]methyl}pyrrolidin-3-yl]oxy}-2,3-dihydro-1H-isoindol-2-yl)piperidine-2,6-dione] | 11.53
20 | 20.8 nM | 33.67 | 5.4 nM | O=C1CCC(N2Cc3cc(O[C@H]4CCN(Cc5ccc6nc(CC(F)(F)F)ccc6c5)C4)ccc3C2=O)C(=O)N1 (stereo partly drawn) [3-(1-oxo-5-{[(3S)-1-{[2-(2,2,2-trifluoroethyl)quinolin-6-yl]methyl}pyrrolidin-3-yl]oxy}-2,3-dihydro-1H-isoindol-2-yl)piperidine-2,6-dione] | 13.32
21 | 1.93 nM | 35 | 2.27 nM | O=C1CCC(N2Cc3cc(O[C@H]4CCN(Cc5ccc6nc(-n7ccccc7=O)ccc6c5)C4)ccc3C2=O)C(=O)N1 (stereo partly drawn) [3-(1-oxo-5-{[(3S)-1-{[2-(2-oxo-1,2-dihydropyridin-1-yl)quinolin-6-yl]methyl}pyrrolidin-3-yl]oxy}-2,3-dihydro-1H-isoindol-2-yl)piperidine-2,6-dione] | 8.805
